The subject of one assay is RTV-I135T/V245T. The experiment in a line: Phenotypic susceptibility assay, RTV-I135T/V245T. It counts as cell-based, HIV-1. The conditions noted are these: site-directed I135T + V245T. From the text:
(§1) The resistance test vectors containing a functional luciferase gene cassette were constructed and host cells were transfected with the resistance test vector DNA. The resistant test vectors contained patient-derived reverse transcriptase and protease sequences that were either susceptible or resistant to the antiretroviral agents, such as nucleoside reverse transcriptase inhibitors, (NRTIs) non-nucleoside reverse transcriptase inhibitors […] protease inhibitors. The resistance test vector viral particles produced by transfecting the resistance test vector DNA into host cells, either in the presence or absence of PRIs, were used to infect target host cells grown either in the absence of NRTIs or NNRTIs, or in the presence of increasing concentrations of the drug. The amount of luciferase activity produced in infected target host cells in the presence of varying concentrations of drug was compared to the amount of luciferase produced in infected target host cells in the absence of drug. “Drug resistance” was measured as the amount of drug required to inhibit by 50% the luciferase activity detected in the absence of drug (inhibitory concentration 50%, IC50). The IC50 values were determined by plotting percent drug inhibition vs. log10 drug concentration. Stimulation of viral replication was measured as the percent increase in luciferase activity detected when infection occurs in the presence of drug as compared to in the absence of drug.
(§2) Host cells were seeded in 10-cm-diameter dishes and were transfected several days after plating with resistance test vector plasmid DNA and the envelope expression vector. Transfections were performed using a calcium-phosphate precipitation procedure. The cell culture media containing the DNA precipitate was replaced with fresh medium, from one to 24 hours, after transfection. Cell culture media containing resistance test vector viral particles was harvested one to four days after transfection and was passed through a […] filter before being used to infect target host cells, or being stored at −80° C. HIV capsid protein (p24) levels in the harvested cell culture media were determined by an EIA method as described by the manufacturer (SAIC; Frederick, Md.). Before infection, target cells (293 and 293/T) were plated in cell culture media. Control infections were performed using cell culture media from mock transfections (no DNA) or transfections containing the resistance test vector plasmid DNA without the envelope expression plasmid. One to three or more days after infection, the media was removed and cell lysis buffer (Promega) was added to each well. Cell lysates were assayed for luciferase activity (FIG. 3). The inhibitory effect of the drug was determined using the following equation:
(§3) % luciferase inhibition=1−(RLUluc[drug]÷RLUluc)×100
(§4) where RLUluc [drug] is the Relative Light Unit of luciferase activity in infected cells in the presence of drug, and RLUluc is the Relative Light Unit of luciferase activity in infected cells in the absence of drug. IC50values were obtained from the sigmoidal curves that were generated from the data by plotting the percent inhibition of luciferase activity vs. the log10 drug concentration. The percent luciferase stimulation is the negative of the % inhibition calculated using the formula above.
A resistance test vector containing two mutations, I135T and V245T (RTV-I135T/V245T) was constructed and tested in the phenotypic assay described earlier. The results were compared to those determined using a genetically defined resistance test vector that was wild type at positions 135 and 245. We determined the pattern of phenotypic susceptibility to the NNRTIs, delavirdine, nevirapine and efavirenz, in RTV-I135T/V245T.

A further assay deals with RTV-I135T. The experiment in a line: Phenotypic susceptibility assay, RTV-I135T. It counts as cell-based, HIV-1. The conditions noted are these: site-directed I135T alone.
Excerpt: as §1, §2, §3, §4
A resistance test vector containing a single mutation, I135T, (RTV-I135T) was constructed and tested in the phenotypic assay described earlier. The results were compared to those determined using a genetically defined resistance test vector that was wild type at position 135. We determined the pattern of phenotypic susceptibility to the NNRTIs, delavirdine, nevirapine and efavirenz, in RTV-I135T.

Another assay concerns RTV-007130. Kind of assay: Phenotypic susceptibility assay, RTV-007130. Format: cell-based, HIV. The conditions noted are these: patient 007130; for decrease in susceptibility: 245 with multiple other mutations.
Excerpt: as §1, §2, §3, §4
(§5) A resistance test vector was constructed as described in Example 1 from a virus sample obtained from patient 007130. The prior and current treatment regimens are unknown. Isolation of viral RNA and RT/PCR was used to generate a patient derived segment (PDS) that comprised viral sequences coding for all of PR and aa 1-313 of RT. The PDS were inserted into an indicator gene viral vector to generate a resistance test vector designated RTV-007130. RTV-007130 was then tested in a phenotypic assay to determine accurately and quantitatively the level of susceptibility to a panel of anti-retroviral drugs. […]

Assay [1] concerns RTV-1033-3/283L/284R/286T/293V/297E. The experiment in a line: Phenotypic susceptibility assay, RTV-1033-3/283L/284R/286T/293V/297E. It counts as cell-based, HIV. The conditions noted are these: RTV-1033-3 with L283I, R284K, T286A, V293I and E297K reverted.
Excerpt: as §1, §2, §3, §4
A resistance test vector containing all of the mutations present in RTV-1033-3 except for L283I, R284K, T286A, V293I and E297K (RTV-1033-3/283L/284R/286T/293V/297E) was constructed and tested using the phenotypic assay described earlier. The results were compared to those determined using the parent RTV-1033-3. We determined the pattern of phenotypic susceptibility to the NNRTIs, delavirdine, nevirapine and efavirenz, in the reverted vector, RTV-1033-3/283L/284R/286T/293V/297E.

The next assay concerns RTV-013522. Kind of assay: Phenotypic susceptibility assay, RTV-013522. Format: cell-based, HIV. The conditions noted are these: patient 013522; for decrease in susceptibility: K103N, I135T, I270S.
Excerpt: as §1, §2, §3, §4
as §5, with “013522.” for “007130.”, “RT from all three samples.” for “RT.”, “RTV-013522. RTV-013522” for “RTV-007130. RTV-007130”

In the next assay the test system is RTV-309. Kind of assay: Phenotypic susceptibility assay, RTV-309. Format: cell-based, HIV. The following applies: patient 1033 sample before any NNRTI. The source says: The resistance test vectors containing a functional luciferase gene cassette were constructed and host cells were transfected with the resistance test vector DNA. The resistant test vectors contained patient-derived reverse transcriptase and protease sequences that were either susceptible or resistant to the antiretroviral agents, such as nucleoside reverse transcriptase inhibitors, (NRTIs) non-nucleoside reverse transcriptase inhibitors […] protease inhibitors. The resistance test vector viral particles produced by transfecting the resistance test vector DNA into host cells, either in the presence or absence of PRIs, were used to infect target host cells grown either in the absence of NRTIs or NNRTIs, or in the presence of increasing concentrations of the drug. The amount of luciferase activity produced in infected target host cells in the presence of varying concentrations of drug was compared to the amount of luciferase produced in infected target host cells in the absence of drug. […] The IC50 values were determined by plotting percent drug inhibition vs. log10 drug concentration. Stimulation of viral replication was measured as the percent increase in luciferase activity detected when infection occurs in the presence of drug as compared to in the absence of drug.
Host cells were seeded in 10-cm-diameter dishes and were transfected several days after plating with resistance test vector plasmid DNA and the envelope expression vector. […] HIV capsid protein (p24) levels in the harvested cell culture media were determined by an EIA method as described by the manufacturer (SAIC; Frederick, Md.). […] The inhibitory effect of the drug was determined using the following equation: […]
where RLUluc [drug] is the Relative Light Unit of luciferase activity in infected cells in the presence of drug, and RLUluc is the Relative Light Unit of luciferase activity in infected cells in the absence of drug. […] The percent luciferase stimulation is the negative of the % inhibition calculated using the formula above. […]

Where only a bound is given, the exact number is not on record here.

On to `CC(C)Nc1cccnc1N1CCN(C(=O)c2cc3cc(NS(C)(=O)=O)ccc3[nH]2)CC1` [delavirdine], for which the “drug-dependent stimulation of viral replication” value (“drug-dependent stimulation” below) is given as approximately 10% with RTV-I135T/V245T; “no drug-dependent stimulation” with RTV-I135T; approximately 30% in the assay on RTV-007130; “no drug-dependent stimulation” in assay [1]; approximately 110% in the assay on RTV-013522. In addition, the entries for the “reductions in susceptibility compared to wild type control RTV” value (“reductions in susceptibility” below) (with RTV-I135T/V245T; with RTV-I135T; in assay [1]) were 2.5 fold, “no reductions” and 16 fold, respectively. For the same compound, the decrease in susceptibility with RTV-007130 and in the assay on RTV-013522 was more than 250 fold in each case. Further, in the assay on RTV-309, the reduction in susceptibility entry was “wild type pattern of susceptibility”.

With `O=C1Nc2ccc(Cl)cc2[C@@](C#CC2CC2)(C(F)(F)F)O1` [efavirenz], the “drug-dependent stimulation” value is “no drug-dependent stimulation” with RTV-I135T/V245T; “no drug-dependent stimulation” with RTV-I135T; approximately 40% with RTV-007130; “no drug-dependent stimulation” in assay [1]; approximately 100% in the assay on RTV-013522. Further, the “reductions in susceptibility” value in the assay with RTV-I135T/V245T is reported as 2.4 fold; in the assay on RTV-I135T it was “no reductions”; in assay [1], 5 fold. The decrease in susceptibility in the assay on RTV-007130 and in the assay with RTV-013522 was more than 450 fold throughout. The reduction in susceptibility result in the assay on RTV-309 is “wild type pattern of susceptibility”.

For `Cc1ccnc2c1NC(=O)c1cccnc1N2C1CC1` [nevirapine], the “drug-dependent stimulation” value is reported as approximately 10% in the assay on RTV-I135T/V245T; “no drug-dependent stimulation” in the assay with RTV-I135T; approximately 50% with RTV-007130; “no drug-dependent stimulation” in assay [1]; approximately 90% in the assay on RTV-013522. Also, the entries for the “reductions in susceptibility” value (with RTV-I135T/V245T; with RTV-I135T; in assay [1]) were 4 fold, “no reductions” and 144 fold, respectively. For the same compound, the decrease in susceptibility in the assay on RTV-007130 and with RTV-013522 was more than 600 fold throughout. In the assay on RTV-309, this compound registered a reduction in susceptibility of 3 fold.
